The experiment has as its target T1, human DLL3 (Homo sapiens, UniProt Q9NYJ7).
T1 construct: biotin (biotinylated)
T1 sequence (Q9NYJ7 27-618): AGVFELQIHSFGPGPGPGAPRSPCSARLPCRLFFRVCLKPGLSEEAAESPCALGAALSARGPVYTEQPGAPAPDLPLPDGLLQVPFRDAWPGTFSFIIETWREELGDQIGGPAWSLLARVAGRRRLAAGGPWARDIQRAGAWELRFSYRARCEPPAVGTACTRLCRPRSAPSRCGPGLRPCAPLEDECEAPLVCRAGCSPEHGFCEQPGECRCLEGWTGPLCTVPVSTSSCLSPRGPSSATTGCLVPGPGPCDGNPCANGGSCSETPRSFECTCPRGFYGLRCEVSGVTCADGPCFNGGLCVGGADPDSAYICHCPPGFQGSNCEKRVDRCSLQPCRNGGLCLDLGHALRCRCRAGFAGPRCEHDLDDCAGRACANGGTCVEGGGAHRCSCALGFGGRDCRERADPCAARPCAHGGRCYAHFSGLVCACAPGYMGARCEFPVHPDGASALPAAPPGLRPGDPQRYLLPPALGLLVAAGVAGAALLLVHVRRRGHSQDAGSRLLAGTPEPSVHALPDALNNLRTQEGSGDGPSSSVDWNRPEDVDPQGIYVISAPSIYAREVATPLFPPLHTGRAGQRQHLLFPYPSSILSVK
As to the kind of experiment: Affinity determination by Surface Plasmon Resonance (SPR), Biacore, 1:1 binding model. As to conditions: biotinylated human DLL3 on streptavidin chip, 25° C.; NB = nonbinding. In short, it runs like this: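 SPR with biotinylated human DLL3 captured on a streptavidin chip, with a reference surface subtracted. Samples were injected at several concentrations at 100 μL/min in phosphate buffer with 137 mM NaCl, 2.7 mM KCl, 0.05% P20 and 2% DMSO. Kinetic and affinity constants came from a 1:1 binding fit.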

Structures are written as SMILES. Numbered stars: 1 amine (or outer) side, 2 acyl side, 3 side chain; on linkers, the order of the positions; unused ones are H or OH. Bridge positions count the residues as written; N and C are the ends. Square brackets hold non-standard residues; d marks the D form. Peptide text beside a SMILES is read from it. * marks the point of attachment. Ala(1-CH2CO2H-4-piperidyl) = N[C@@H](CC1CCN(CC(=O)O)CC1)C(=O)O; Ala(piperidin-4-yl) = O=C([C@H](CC1CCN([*:3])CC1)N[*:1])[*:2]; DOTA = O=C(O)CN1CCN(CC(=O)O)CCN(CC(=O)*)CCN(CC(=O)O)CC1; Phe(4-CH2NH2) = NCc1ccc(C[C@H](N)C(=O)O)cc1; 1Nal = N[C@@H](Cc1cccc2ccccc12)C(=O)O; 2Nal = N[C@@H](Cc1ccc2ccccc2c1)C(=O)O; tBuAla = CC(C)(C)C[C@H](N)C(=O)O; dAllylGly = C=CC[C@@H](N)C(=O)O; αMeD = C[C@](N)(CC(=O)O)C(=O)O; AllylGly = C=CC[C@H](N)C(=O)O; αMeP = C[C@@]1(C(=O)O)CCCN1

Compound `CC(=O)N[C@@H](CC1CCNCC1)C(=O)N[C@@H](CO)C(=O)N[C@@H](CC(=O)O)C(=O)N[C@H]1C/C=C/C[C@@H](C(=O)N2CCC[C@@]2(C)C(=O)N[C@@H](Cc2ccccc2)C(=O)N[C@@H](CC(=O)O)C(N)=O)NC(=O)[C@H](CC(N)=O)NC(=O)[C@H](Cc2ccc3ccccc3c2)NC(=O)[C@H](Cc2ccc(CNC(=O)CN3CCN(CC(=O)O)CCN(CC(=O)O)CCN(CC(=O)O)CC3)cc2)NC(=O)[C@H](CC(C)(C)C)NC(=O)[C@H](Cc2cccc3ccccc23)NC1=O` [compound 199, Ac-(D-Ala)-S-D-AllyG(4)-(1Nal)-(t-Bu-Ala)-[PAF(DOTA)]-(2Nal)-N-AllyG(4)-(aMe-P)-F-D-CONH2] (Ac-[Ala(piperidin-4-yl)]SD[AllylGly][1Nal][tBuAla][Phe(4-CH2NH2)](DOTA)[2Nal]N[AllylGly][αMeP]FD-NH2; staple (E) 4-10) displayed a dissociation constant (Kd) of 0.21 nM. `CC(=O)N[C@@H](CC1CCNCC1)C(=O)N[C@@H](CO)C(=O)N[C@@H](CC(=O)O)C(=O)N[C@H]1C/C=C\C[C@@H](C(=O)N2CCC[C@@]2(C)C(=O)N[C@@H](Cc2ccccc2)C(=O)N[C@@H](CC(=O)O)C(N)=O)NC(=O)[C@H](CC(N)=O)NC(=O)[C@H](Cc2ccc3ccccc3c2)NC(=O)[C@H](Cc2ccc(CNC(=O)CN3CCN(CC(=O)O)CCN(CC(=O)O)CCN(CC(=O)O)CC3)cc2)NC(=O)[C@H](CC(C)(C)C)NC(=O)[C@H](Cc2cccc3ccccc23)NC1=O` [compound 201, Ac-[3-(4-piperidinyl)-Ala]-S-D-AllyG(4)-(1Nal)-(t-Bu-Ala)-[PAF(DOTA)]-(2Nal)-N-AllyG(4)-(aMe-P)-F-D-CONH2] (Ac-[Ala(piperidin-4-yl)]SD[AllylGly][1Nal][tBuAla][Phe(4-CH2NH2)](DOTA)[2Nal]N[AllylGly][αMeP]FD-NH2; staple (Z) 4-10) displayed a Kd of 14.6 nM. With `CC(=O)N[C@@H](CC1CCNCC1)C(=O)N[C@@H](CO)C(=O)N[C@@H](CC(=O)O)C(=O)N[C@H]1C/C=C/C[C@@H](C(=O)N2CCC[C@@]2(C)C(=O)N[C@@H](Cc2ccccc2)C(=O)N[C@@H](CC(=O)O)C(N)=O)NC(=O)[C@H](CC(N)=O)NC(=O)[C@H](Cc2ccc3ccccc3c2)NC(=O)[C@H](Cc2ccc(CNC(=O)CN3CCN(CC(=O)O)CCN(CC(=O)O)CCN(CC(=O)O)CC3)cc2)NC(=O)[C@H](CC(C)(C)C)NC(=O)[C@H](Cc2cccc3ccccc23)NC1=O` [compound 202, Ac-[3-(4-piperidinyl)-Ala]-S-D-AllyG(4)-(1Nal)-(t-Bu-Ala)-[PAF(DOTA)]-(2Nal)-N-AllyG(4)-(aMe-P)-F-D-CONH2] (Ac-[Ala(piperidin-4-yl)]SD[AllylGly][1Nal][tBuAla][Phe(4-CH2NH2)](DOTA)[2Nal]N[AllylGly][αMeP]FD-NH2; staple (E) 4-10), the equilibrium dissociation constant (Kd) came to 0.53 nM. As to `CC(=O)N[C@H](C)C(=O)N[C@@H](CO)C(=O)N[C@@H](CC(=O)O)C(=O)N[C@H]1C/C=C/C[C@@H](C(=O)N2CCC[C@@]2(C)C(=O)N[C@@H](Cc2ccccc2)C(=O)N[C@@H](CC(=O)O)C(N)=O)NC(=O)[C@H](CC(N)=O)NC(=O)[C@H](Cc2ccc3ccccc3c2)NC(=O)[C@H](Cc2ccc(CNC(=O)CN3CCN(CC(=O)O)CCN(CC(=O)O)CCN(CC(=O)O)CC3)cc2)NC(=O)[C@H](CC2CCNCC2)NC(=O)[C@H](Cc2cccc3ccccc23)NC1=O` [compound 204, Ac-(D-Ala)-S-D-AllyG(4)-(1Nal)-[3-(4-piperidinyl)-Ala]-[PAF(DOTA)]-(2Nal)-N-AllyG(4)-(aMe-P)-F-D-CONH2] (Ac-[dA]SD[AllylGly][1Nal][Ala(piperidin-4-yl)][Phe(4-CH2NH2)](DOTA)[2Nal]N[AllylGly][αMeP]FD-NH2; staple (E) 4-10), the Kd is 1.3 nM. Take `CC(=O)N[C@@H](CC1CCN(CC(=O)O)CC1)C(=O)N[C@@H](CO)C(=O)N[C@@](C)(CC(=O)O)C(=O)N[C@H]1C/C=C\C[C@@H](C(=O)N2CCC[C@@]2(C)C(=O)N[C@@H](Cc2ccccc2)C(=O)N[C@@H](CC(=O)O)C(N)=O)NC(=O)[C@H](CC(N)=O)NC(=O)[C@H](Cc2ccc3ccccc3c2)NC(=O)[C@H](Cc2ccc(CNC(=O)CN3CCN(CC(=O)O)CCN(CC(=O)O)CCN(CC(=O)O)CC3)cc2)NC(=O)[C@H](CC(C)(C)C)NC(=O)[C@H](Cc2cccc3ccccc23)NC1=O` [compound 207, Ac-[3-(piperidinyl-4-CH2CO2H)-Ala]-S-(aMe-Asp)-AllyG(4)-(1Nal)-(t-Bu-Ala)-[PAF(DOTA)]-(2Nal)-N-AllyG(4)-(aMe-P)-F-D-CONH2] (Ac-[Ala(1-CH2CO2H-4-piperidyl)]S[αMeD][AllylGly][1Nal][tBuAla][Phe(4-CH2NH2)](DOTA)[2Nal]N[AllylGly][αMeP]FD-NH2; staple (Z) 4-10): the Kd came out at 31 nM. Consider `CC(=O)N[C@@H](CC1CCN(CC(=O)O)CC1)C(=O)N[C@@H](CO)C(=O)N[C@@](C)(CC(=O)O)C(=O)N[C@H]1C/C=C/C[C@@H](C(=O)N2CCC[C@@]2(C)C(=O)N[C@@H](Cc2ccccc2)C(=O)N[C@@H](CC(=O)O)C(N)=O)NC(=O)[C@H](CC(N)=O)NC(=O)[C@H](Cc2ccc3ccccc3c2)NC(=O)[C@H](Cc2ccc(CNC(=O)CN3CCN(CC(=O)O)CCN(CC(=O)O)CCN(CC(=O)O)CC3)cc2)NC(=O)[C@H](CC(C)(C)C)NC(=O)[C@H](Cc2cccc3ccccc23)NC1=O` [compound 208, Ac-[3-(piperidinyl-4-CH2CO2H)-Ala]-S-(aMe-Asp)-AllyG(4)-(1Nal)-(t-Bu-Ala)-[PAF(DOTA)]-(2Nal)-N-AllyG(4)-(aMe-P)-F-D-CONH2] (Ac-[Ala(1-CH2CO2H-4-piperidyl)]S[αMeD][AllylGly][1Nal][tBuAla][Phe(4-CH2NH2)](DOTA)[2Nal]N[AllylGly][αMeP]FD-NH2; staple (E) 4-10), for which the Kd is 0.386 nM.

Turning to `CC(=O)N[C@@H](CC1CCNCC1)C(=O)N[C@@H](CO)C(=O)N[C@@H](CC(=O)O)C(=O)N[C@H]1CCCC[C@@H](C(=O)N2CCC[C@@]2(C)C(=O)N[C@@H](Cc2ccccc2)C(=O)N[C@@H](CC(=O)O)C(N)=O)NC(=O)[C@H](CC(N)=O)NC(=O)[C@H](Cc2ccc3ccccc3c2)NC(=O)[C@H](Cc2ccc(CNC(=O)CN3CCN(CC(=O)O)CCN(CC(=O)O)CCN(CC(=O)O)CC3)cc2)NC(=O)[C@H](CC(C)(C)C)NC(=O)[C@H](Cc2cccc3ccccc23)NC1=O` [compound 209, Ac-[3-(4-piperidinyl)-Ala]-S-D-AllyG(4)*-(1Nal)-(t-Bu-Ala)-[PAF(DOTA)]-(2Nal)-N-AllyG(4)*-(aMe-P)-F-D-CONH2], the Kd was 0.591 nM. In turn, `CC(=O)N[C@@H](CC1CCNCC1)C(=O)N[C@@H](CO)C(=O)N[C@@H](CC(=O)O)C(=O)N[C@@H]1C/C=C/C[C@@H](C(=O)N2CCC[C@@]2(C)C(=O)N[C@@H](Cc2ccccc2)C(=O)N[C@@H](CC(=O)O)C(N)=O)NC(=O)[C@H](CC(N)=O)NC(=O)[C@H](Cc2ccc3ccccc3c2)NC(=O)[C@H](Cc2ccc(CNC(=O)CN3CCN(CC(=O)O)CCN(CC(=O)O)CCN(CC(=O)O)CC3)cc2)NC(=O)[C@H](CC(C)(C)C)NC(=O)[C@H](Cc2cccc3ccccc23)NC1=O` [compound 210, Ac-[3-(4-piperidinyl)-Ala]-S-D-D-AllyG(4)-(1Nal)-(t-Bu-Ala)-[PAF(DOTA)]-(2Nal)-N-AllyG(4)-(aMe-P)-F-D-CONH2] (Ac-[Ala(piperidin-4-yl)]SD[dAllylGly][1Nal][tBuAla][Phe(4-CH2NH2)](DOTA)[2Nal]N[AllylGly][αMeP]FD-NH2; staple (E) 4-10) registered a dissociation constant Kd of more than 100 nM. Take `CC(=O)N[C@@H](CC1CCNCC1)C(=O)N[C@@H](CO)C(=O)N[C@@H](CC(=O)O)C(=O)N[C@H]1C/C=C\C[C@H](C(=O)N2CCC[C@@]2(C)C(=O)N[C@@H](Cc2ccccc2)C(=O)N[C@@H](CC(=O)O)C(N)=O)NC(=O)[C@H](CC(N)=O)NC(=O)[C@H](Cc2ccc3ccccc3c2)NC(=O)[C@H](Cc2ccc(CNC(=O)CN3CCN(CC(=O)O)CCN(CC(=O)O)CCN(CC(=O)O)CC3)cc2)NC(=O)[C@H](CC(C)(C)C)NC(=O)[C@H](Cc2cccc3ccccc23)NC1=O` [compound 211, Ac-[3-(4-piperidinyl)-Ala]-S-D-AllyG(4)-(1Nal)-(t-Bu-Ala)-[PAF(DOTA)]-(2Nal)-N-D-AllyG(4)-(aMe-P)-F-D-CONH2] (Ac-[Ala(piperidin-4-yl)]SD[AllylGly][1Nal][tBuAla][Phe(4-CH2NH2)](DOTA)[2Nal]N[dAllylGly][αMeP]FD-NH2; staple (Z) 4-10): the dissociation constant (Kd) was more than 100 nM. Regarding `CC(=O)N[C@@H](CC1CCNCC1)C(=O)N[C@@H](CO)C(=O)N[C@@H](CC(=O)O)C(=O)N[C@@H]1C/C=C/C[C@H](C(=O)N2CCC[C@@]2(C)C(=O)N[C@@H](Cc2ccccc2)C(=O)N[C@@H](CC(=O)O)C(N)=O)NC(=O)[C@H](CC(N)=O)NC(=O)[C@H](Cc2ccc3ccccc3c2)NC(=O)[C@H](Cc2ccc(CNC(=O)CN3CCN(CC(=O)O)CCN(CC(=O)O)CCN(CC(=O)O)CC3)cc2)NC(=O)[C@H](CC(C)(C)C)NC(=O)[C@H](Cc2cccc3ccccc23)NC1=O` [compound 212, Ac-[3-(4-piperidinyl)-Ala]-S-D-D-AllyG(4)-(1Nal)-(t-Bu-Ala)-[PAF(DOTA)]-(2Nal)-N-D-AllyG(4)-(aMe-P)-F-D-CONH2] (Ac-[Ala(piperidin-4-yl)]SD[dAllylGly][1Nal][tBuAla][Phe(4-CH2NH2)](DOTA)[2Nal]N[dAllylGly][αMeP]FD-NH2; staple (E) 4-10), the dissociation constant (Kd) was more than 100 nM.

The values are drawn from US20250186541A1, “DLL3 TARGETING PEPTIDES AND CONSTRUCTS THEREOF” (MARIANA ONCOLOGY INC., priority 2023, published 2025).
